≈ marks a conversion by molar mass, not a printed value. Read-outs that look alike come from different tables or passages of the source.
How the values were obtained:
E. coli ATCC 25922 = assay: Minimum Inhibitory Concentration (MIC) in LB media; type: cell-based, Escherichia coli; settings: Escherichia coli, ATCC25922, LB Media
From the text: (§1) The compounds of Formula I are of interest due to their potent antibacterial effects. The ability of the invention compounds disclosed herein to achieve an antibacterial effect may be evaluated with regard to their ability to inhibit the growth of bacterial species like Escherichia coli ATCC 25922, Staphylococcus aureus ATCC 29213, Klebsiella pneumoniae ATCC 13883, Acinetobacter baumannii ATCC 19606, Pseudomonas aurigenosa ATCC 27853, Enterococcus faecalis ATCC 29212 and Enterococcus faecalis ATCC 29212 using an assay based on the following Minimum Inhibitory Concentration (MIC) protocol:
(§2) The test bacteria are grown in Luria Bertani Broth (HIMEDIA M1245), 25 grams of the powder is dissolved in 1000 ml distilled water and sterilized by autoclaving at 15 lbs pressure (121° C.) for 20 minutes. The medium sterility is checked by incubating at 37° C. for a period of 48 h.
(§3) Bacterial cultures that are stored as glycerol stocks at −80° C. are sub cultured on LB agar plates to obtain isolated colonies. A single colony of each strain is cultured in LB broth. The cultures are incubated at 37° C., 200 rpm till they reach an optical density (OD at 600 nm) of 0.8 to 1. […] Test compounds are dissolved in dimethyl sulfoxide (DMSO) to a stock concentration of 4 mg/ml. A twofold dilution series of this DMSO stock is prepared in a 96 well V bottom microtitre plate from rows A to H. A 3 μL volume of these dilutions are transferred to a 96-well flat bottom microtitre assay plate. Controls to monitor the effects of DMSO and media sterility are included. Each well is inoculated with 150 μL of the above diluted culture. The plates are incubated at 37° C. overnight in a humidified incubator. The following morning, the plates are read using a Spectrophotometer at 600 nm wavelength. […] The antibacterial activity (MIC) determined against representative Gram positive (S. aureus, E. faecalis) and Gram negative (E. coli, P. aurigenosa, K. pneumoniae and A. baumannii) pathogen were reported Table 1.

P. aurigenosa ATCC 27853 = assay: Minimum Inhibitory Concentration (MIC) in LB media; type: cell-based, Pseudomonas aurigenosa; settings: Pseudomonas, ATCC27853, LB Media
From the text: as §1, §2, §3

K. pneumoniae ATCC 13883 = assay: Minimum Inhibitory Concentration (MIC) in LB media; type: cell-based, Klebsiella pneumoniae; settings: Klebsiella pneumoniae, ATCC13883, LB Media
From the text: as §1, §2, §3

[1] = Mouse oral pharmacokinetics; type: in vivo, BALB/c mice; parameters: AUC/Dose: unit not given beside the values; settings: for Cmax/dose: in (µg/mL)/(mg/kg)
Procedure: To assess the Oral and Intravenous pharmacokinetic profile of Example 13, pharmacokinetics (PK) of Example 13 was characterized in BALB/c mice following single intravenous (i.v.) dose of 2 mg/kg and single escalating oral doses of 2, 10, 50 and 100 mg/kg, respectively. This study was performed following all ethical practices as laid down in the guidelines for animal care (Registration number No. 1852/PO/Rc/S/16/CPCSEA). The study was approved by the Institutional Animals Ethics Committee (IAEC) of the test facility. For IVPK in BALB/c mice, the formulation used was DMSO: PEG400: Ethanol: Water (10:20:10:60 v/v) and Example 13 administered as solution. For POPK, the formulation used was 0.1% Tween80 in 0.25% CMC and Example 13 administered as suspension through an oral gavage. The plasma (mice) samples were analyzed by LC-MS/MS. PK parameters were estimated by non-compartmental analysis in Phoenix WinNonlin 6.4 The results of the per-oral and intravenous PK study of Example 13 are presented in Table 4 and 5

[2] = BALB/c, mouse, plasma, mice, single oral dose 2 mg/kg
[3] = BALB/c, mouse, plasma, mice, single oral dose 10 mg/kg
[4] = BALB/c, mouse, plasma, mice, single oral dose 50 mg/kg
[5] = BALB/c, mouse, plasma, mice, single oral dose 100 mg/kg
[6] = mice, single oral dose 10 mg/kg
[7] = mice, single oral dose 50 mg/kg
[8] = mice, single oral dose 100 mg/kg

**Q.** With `CN1C(=O)Cc2ccc(F)c(CCNCCC3CN(c4ccc5c(n4)NC(=O)CO5)C(=O)O3)c21` (single isomer, unassigned) [Example 13, 6-(5-(2-((2-(6-fluoro-1-methyl-2-oxoindolin-7-yl)ethyl)amino)ethyl)-2-oxooxazolidin-3-yl)-2H-pyrido[3,2-b][1,4]oxazin-3(4H)-one] as the molecule, how does the MIC (E. coli ATCC 25922) read?
**A.** Its MIC is 0.06 µg/mL (≈ 0.128 µM).

**Q.** And the MIC (P. aurigenosa ATCC 27853)?
**A.** The MIC was 0.5 µg/mL (≈ 1.07 µM).

**Q.** And the MIC (K. pneumoniae ATCC 13883)?
**A.** The MIC was 0.125 µg/mL (≈ 0.266 µM).

**Q.** And the Cmax ([1]; BALB/c, mouse, plasma, po, 2 mg/kg, mice, single oral dose 2 mg/kg)?
**A.** The Cmax was 6 ng/mL.

**Q.** And the AUC(0-inf) ([1]; BALB/c, mouse, plasma, po, 2 mg/kg, mice, single oral dose 2 mg/kg, read-out: AUC0-∞)?
**A.** Its AUC(0-inf) is 70 ng·h/mL.

**Q.** And the half-life ([1]; BALB/c, mouse, plasma, po, 2 mg/kg, mice, single oral dose 2 mg/kg, read-out: t1/2 (converted))?
**A.** Its half-life is 5.63 h.

**Q.** And the Cmax ([1]; BALB/c, mouse, plasma, po, 10 mg/kg, mice, single oral dose 10 mg/kg)?
**A.** Its Cmax is 108 ng/mL.

**Q.** And the AUC(0-inf) ([1]; BALB/c, mouse, plasma, po, 10 mg/kg, mice, single oral dose 10 mg/kg, read-out: AUC0-∞)?
**A.** The AUC(0-inf) was 335 ng·h/mL.

**Q.** And the half-life ([1]; BALB/c, mouse, plasma, po, 10 mg/kg, mice, single oral dose 10 mg/kg, read-out: t1/2 (converted))?
**A.** Its half-life is 2.13 h.

**Q.** And the Cmax ([1]; BALB/c, mouse, plasma, po, 50 mg/kg, mice, single oral dose 50 mg/kg)?
**A.** The Cmax was 740 ng/mL.

**Q.** What about the AUC(0-inf) ([1]; BALB/c, mouse, plasma, po, 50 mg/kg, mice, single oral dose 50 mg/kg, read-out: AUC0-∞) of the same molecule?
**A.** Its AUC(0-inf) is 1970 ng·h/mL.

**Q.** And the half-life ([1]; BALB/c, mouse, plasma, po, 50 mg/kg, mice, single oral dose 50 mg/kg, read-out: t1/2 (converted))?
**A.** The half-life was 1.6 h.

**Q.** What about the AUC(0-inf) ([1]; BALB/c, mouse, plasma, po, 100 mg/kg, BALB/c mice, single oral doses of 2, 10, 50 and 100 mg/kg, read-out: AUC0-∞, range over oral doses) of the same molecule?
**A.** The AUC(0-inf) was 70 to 4820 ng·h/mL.

**Q.** And the Clast ([1]; BALB/c, mouse, plasma, po, 100 mg/kg, BALB/c mice, single oral doses of 2, 10, 50 and 100 mg/kg, read-out: Cmax, range over oral doses)?
**A.** The Clast was 4 to 72 ng/mL.

**Q.** What about the half-life ([1]; BALB/c, mouse, plasma, po, 100 mg/kg, BALB/c mice, single oral doses of 2, 10, 50 and 100 mg/kg, read-out: t1/2, range over oral doses) of the same molecule?
**A.** The half-life was 1.4 to 5.6 h.

**Q.** And the Cmax ([1]; BALB/c, mouse, plasma, po, 100 mg/kg, mice, single oral dose 100 mg/kg)?
**A.** Its Cmax is 2380 ng/mL.

**Q.** What about the AUC(0-inf) ([1]; BALB/c, mouse, plasma, po, 100 mg/kg, mice, single oral dose 100 mg/kg, read-out: AUC0-∞) of the same molecule?
**A.** Its AUC(0-inf) is 4820 ng·h/mL.

**Q.** And the half-life ([1]; BALB/c, mouse, plasma, po, 100 mg/kg, mice, single oral dose 100 mg/kg, read-out: t1/2 (converted))?
**A.** The half-life was 1.42 h.

**Q.** What about the AUC(0-t) [1, 2] of the same molecule?
**A.** The AUC(0-t) was 70 ng·h/mL.

**Q.** And the Tmax [1, 2]?
**A.** Its Tmax is 1 h.

**Q.** What about the concentration at 24 h ([1]; BALB/c, mouse, plasma, mice, single oral dose 2 mg/kg, read-out: Clast) of the same molecule?
**A.** The concentration at 24 h was 4 ng/mL.

**Q.** What about the AUC(0-t) [1, 3] of the same molecule?
**A.** Its AUC(0-t) is 311 ng·h/mL.

**Q.** And the Tmax [1, 3]?
**A.** The Tmax was 0.5 h.

**Q.** What about the concentration at 8 h ([1]; BALB/c, mouse, plasma, mice, single oral dose 10 mg/kg, read-out: Clast) of the same molecule?
**A.** Its concentration at 8 h is 9 ng/mL.

**Q.** What about the AUC(0-t) [1, 4] of the same molecule?
**A.** The AUC(0-t) was 1900 ng·h/mL.

**Q.** And the Tmax [1, 4]?
**A.** Its Tmax is 0.5 h.

**Q.** And the concentration at 8 h ([1]; BALB/c, mouse, plasma, mice, single oral dose 50 mg/kg, read-out: Clast)?
**A.** Its concentration at 8 h is 28 ng/mL.

**Q.** What about the AUC(0-t) [1, 5] of the same molecule?
**A.** The AUC(0-t) was 4700 ng·h/mL.

**Q.** What about the Tmax [1, 5] of the same molecule?
**A.** The Tmax was 1 h.

**Q.** And the concentration at 8 h ([1]; BALB/c, mouse, plasma, mice, single oral dose 100 mg/kg, read-out: Clast)?
**A.** Its concentration at 8 h is 72 ng/mL.

**Q.** And the AUC/Dose ([1]; mice, single oral dose 2 mg/kg)?
**A.** Its AUC/Dose is 0.036.

**Q.** What about the F ([1]; mice, single oral dose 2 mg/kg) of the same molecule?
**A.** The F was 20.6%.

**Q.** And the Ke ([1]; mice, single oral dose 2 mg/kg)?
**A.** Its Ke is 0.123 h⁻¹.

**Q.** And the Tlast ([1]; mice, single oral dose 2 mg/kg)?
**A.** The Tlast was 24 h.

**Q.** And the Cmax/dose ([1]; mice, single oral dose 2 mg/kg)?
**A.** Its Cmax/dose is 0.003.

**Q.** What about the AUC/Dose [1, 6] of the same molecule?
**A.** The AUC/Dose was 0.034.

**Q.** What about the F [1, 6] of the same molecule?
**A.** Its F is 19.0%.

**Q.** What about the Ke [1, 6] of the same molecule?
**A.** Its Ke is 0.325 h⁻¹.

**Q.** What about the Tlast [1, 6] of the same molecule?
**A.** Its Tlast is 8 h.

**Q.** And the Cmax/dose [1, 6]?
**A.** Its Cmax/dose is 0.011.

**Q.** What about the AUC/Dose [1, 7] of the same molecule?
**A.** Its AUC/Dose is 0.039.

**Q.** And the F [1, 7]?
**A.** Its F is 22.3%.

**Q.** And the Ke [1, 7]?
**A.** The Ke was 0.433 h⁻¹.

**Q.** And the Tlast [1, 7]?
**A.** Its Tlast is 8 h.

**Q.** And the Cmax/dose [1, 7]?
**A.** Its Cmax/dose is 0.015.

**Q.** And the AUC/Dose [1, 8]?
**A.** Its AUC/Dose is 0.048.

**Q.** What about the F [1, 8] of the same molecule?
**A.** Its F is 27.4%.

**Q.** And the Ke [1, 8]?
**A.** Its Ke is 0.489 h⁻¹.

**Q.** And the Tlast [1, 8]?
**A.** Its Tlast is 8 h.

**Q.** And the Cmax/dose [1, 8]?
**A.** The Cmax/dose was 0.024.

**Q.** And the bioavailability ([1]; mouse, plasma, BALB/c mice, single oral doses of 2, 10, 50 and 100 mg/kg, read-out: oral bioavailability, range over oral doses)?
**A.** Its bioavailability is 19 to 27%.

From patent publication US10711011B2, “Substituted oxazolidines as anti-bacterial agents” (BUGWORKS RESEARCH, INC., priority 2016, dated 2020)
